Here are results for seven molecules from patent publication US20200277268A1, “PENTAFLUOROPHENYL SULFONAMIDE COMPOUNDS, COMPOSITIONS AND USES THEREOF” (DALRIADA THERAPEUTICS INC., priority 2017, published 2020).

Data set [1] has as its system MV4-11. As to the kind of experiment: CellTiter-Blue cell viability, MV4-11. The note with it: for pIC50: Homo sapiens, MV4-11, AML cell line, 72 hours. The class given is cell-based. As to the method: (§1) The anti-cancer efficacy of exemplary compounds of the application were assessed in vitro against different cancer cell lines. Cell viability was examined following treatment at various concentrations of inhibitor (0.097656-50 μM) using a CellTiter-Blue® cell viability assay. 1×10^4 cells/well were plated in 96-well assay plates in culture medium. All cells were grown in DMEM, IMDM and RPMI-1640 supplemented with 10% fetal bovine serum (FBS). In some instances, FBS was removed for periods ranging from 16-24 hours, and re-introduced with test compound addition. After 24 hrs, test compounds and vehicle controls were added to appropriate wells such that the final volume was 100 μl in each well. The cells were cultured for the desired test exposure period (72 hours) at 37° C. and 5% CO2. The assay plates were removed from 3° C. incubator and 20 μl/well of CellTiter-Blue® Reagent was added. The plates were incubated using standard cell culture conditions for 1-4 hours. Afterwards, the plates were shaken for 10 seconds and florescence was recorded at 560/590 nm using a Cytation 3 spectrophotometer. IC50 values were determined using non-linear regression analysis with GraphPad Prism 6.0 (GraphPad Software Inc.).
Background: Resazurin is reduced to fluorescent resorufin, in cell work by metabolically active cells.

The test system of data set [2] is MOLM13. The data set can be described thus: CellTiter-Blue cell viability, MOLM13. Type of data set: cell-based. The note with it: Homo sapiens, MOLM-13; AML cell line, 72 hours. The method, then: as §1
Data set [3] deals with healthy keratinocyte cells (HaCaT). As to the kind of experiment: CellTiter-Blue cell viability, HaCaT. The class given is cell-based. Conditions: Homo sapiens, non-cancerous, 72 hours. As to the method: as §1
In data set [4] the test system is healthy human lung cells (MRC9). As to the kind of experiment: CellTiter-Blue cell viability, MRC9. Type of data set: cell-based. Conditions: non-cancerous, 72 hours. As to the method:
as §1

Data set [5] has as its system primary human fibroblast cells (PHF). As to the kind of experiment: CellTiter-Blue cell viability, PHF. Conditions: non-cancerous, 72 hours. The class given is cell-based. The method, then:
as §1

Data set [6] deals with D425. As to the kind of experiment: Cell viability, medulloblastoma D425. Type of data set: cell-based. Conditions: medulloblastoma cell line. The method, then: as §1, with “Inc.). […]” for “Inc.).”
The subject of data set [7] is D458. As to the kind of experiment: Cell viability, medulloblastoma D458. Type of data set: cell-based. The note with it: medulloblastoma cell line. As to the method:
as §1, with “Inc.). […]” for “Inc.).”

Data set [8] deals with ATCC3034. The data set can be described thus: Cell viability, medulloblastoma ATCC3034. The class given is cell-based. Conditions: medulloblastoma cell line. The method, then:
as §1, with “Inc.). […]” for “Inc.).”

A short description of data set [9]: Intrinsic clearance in mouse hepatocytes.
Procedure: (§3) A stock of 100 μM test compound was prepared by diluting the 10 mM I-1 test compound in DMSO with a solution of 50% acetonitrile and 50% water. In a 96-well non-coated plate, 198 μL of hepatocytes was pipetted, and the plate was placed in the incubator on an orbital shaker to allow the hepatocytes to warm for 10 minutes. To this solution 2 μL of the 100 μM I-1 was added to start the reaction, and the plate was placed on an orbital shaker. […] The reaction solution was then vortexed for 10 minutes and centrifuged at 4,000 rpm for 30 minutes at 4° C. Next, 400 μL of the supernatant was transferred to one new 96-well plate, centrifuged at 4,000 rpm for 30 minutes at 4° C., and 100 μL of the supernatant was transferred to a new 96-well plate ensuring the pellet was not disturbed. 100 μL of ultrapure water was added to all samples for analysis by LC-MS/MS.
Injection volume was 10 μL.
For data set [10], the system named is GBM8. The data set can be described thus: Proliferation of patient derived GBM BTIC line GBM8. The class given is cell-based. The note with it: 62.5, 125, 250 nM, four days. As to the method: (§2) Glioblastoma (GBM) tumor cells with stem-cell properties termed brain tumor initiating cells (BTICs,) are enriched using serum-free culture. Effects of select exemplary compounds were tested on cell proliferation in patient derived GBM BTIC lines: GBM8 and BT428. GBM BTICs were cultured in NeuroCult™ NS-A Proliferation Medium (STEMcell Technologies) supplemented with epidermal growth factor (20 ng/mL), basic fibroblast growth factor (10 ng/mL) and 2 ug/mL of Heparin. The cells were dissociated into single cells and viable cells sorted into 96 well plate at a density of 1000 cells/well. The cells were then treated with varying doses of selected compounds (250 nM, 125 nM, 62.5 nM) with three technical replicates per dilution. DMSO was used as control. Four days following the addition of compounds, the proliferative capacity of GBM BTICs was assessed using PrestoBlue Cell Viability reagent (Invitrogen).

Data set [11] is described as follows: in vitro. The note with it: mouse, hepatocytes.
Procedure: as §3
Injection volume was 10 μL.
The subject of data set [12] is BT428. As to the kind of experiment: Proliferation of patient derived GBM BTIC line BT428. The class given is cell-based. Conditions: 62.5, 125, 250 nM, four days. As to the method:
as §2

Data set [13] relates to UFMylation pathway (UBA5, UFC1, UFM1, c-Myc) in MV4-11 cells. The data set can be described thus: Western blot of UFMylation pathway in MV4-11 cells. Type of data set: cell-based. The note with it: 8 hours, 0 to 1 μM. The method, then:
Post-treatment (8 hours) of MV4-11 cells with I-1 test compound at 1, 0.5, 0.25, 0.1 and 0 μM concentrations, all cells were lysed with radioimmunoprecipitation assay (RIPA) buffer: 20 mM Tris pH 7.4, 150 mM NaCl, 0.5% deoxycholate, 1% Triton X-100, 0.1% sodium dodecyl sulfate (SDS). Total protein was measured using BCA assay (Sigma). In each assay, clarified protein were resolved on a 4%-15% polyacrylamideSDS gel and transferred to a PVDF membrane (Bio-Rad). The membranes were blocked with 5% solution of skim milk powder in TBST and incubated for at least 1 hour followed by an overnight incubation at 4° C. in primary antibody (1:1000 dilution). Blots were probed with antibodies against UBA5, UFM1, UFC1, c-Myc, and beta-actin was used as a loading control (Santa Cruz Biotechnology catalog # sc-835). The PVDF membrane then washed with TBST (3 times for 5 minutes). A horseradish peroxides (HRP)-conjugated goat anti-mouse IgG secondary antibodies (Cell signaling Catalog #7076S) was applied to the membrane (1:5000 dilution) and incubated for 1 hour at room temperature. The blots were then rinsed again 3 times in TBST for 10 minutes. Bands were visualized using clarity western ECL substrate luminal/enhancer solution and peroxide solution 1:1 ratio for HRP secondary antibody, according to the manufacturer's instructions (Bio-Rad) and analyzed using Image lab software (Bio-Rad).
(In western blotting, separated proteins are transferred to a membrane and probed.)

Each structure is given as a SMILES string. pIC50: −log10 of the molar value.

The term pIC50 denotes the IC50 on a negative log10 scale, so that one unit is a factor of ten. Read a low pIC50 as a high IC50. By half-life is commonly meant the time needed for the level to fall by half in the phase considered. A higher half-life goes with slow decline.

For the molecule `COc1ccc(CN(C2CC2)S(=O)(=O)c2c(F)c(F)c(F)c(F)c2F)cc1` [Compound I-8, N-cyclopropyl-2,3,4,5,6-pentafluoro-N-(4-methoxybenzyl)benzenesulfonamide], the pIC50 in data set [1] is 6.03; in data set [2], 6.14; in data set [3] it was 4.76.
In the case of `O=S(=O)(c1c(F)c(F)c(F)c(F)c1F)N(Cc1ccc(Cl)cc1)C1CC1` [Compound I-7, N-(4-chlorobenzyl)-N-cyclopropyl-2,3,4,5,6-pentafluorobenzenesulfonamide], the negative logarithm of the IC50 (pIC50) in data set [1] was 5.86; in data set [2] it was 5.46; in [4], 4.79; in data set [5] it was 5.57; in data set [6] it was 5.85; in data set [7] it was 5.70. Also, in data set [8], the pIC50 is 6.52. The molecule further displayed a half-life at 1 μM in [9] of 1.92 h.
In the case of `O=S(=O)(c1c(F)c(F)c(F)c(F)c1F)N(Cc1ncc(F)cc1F)C1CC1` [Compound I-37, N-cyclopropyl-N-((3,5-difluoropyridin-2-yl)methyl)-2,3,4,5,6-pentafluorobenzenesulfonamide], the pIC50 in data set [1] was 5.77; in data set [2], 5.54; in data set [4] it was 4.66; in data set [5], 5.06. Besides, in [10], the “effect on cell proliferation in GBM8” value was “show potency”.
As for `COc1ccc(NS(=O)(=O)c2c(F)c(F)c(F)c(F)c2F)cc1F` [Batabulin], the half-life at 1 μM in data set [11] was 0.298 h.
`O=S(=O)(c1c(F)c(F)c(F)c(F)c1F)N(Cc1ncccc1C(F)(F)F)C1CC1` [Compound I-43, N-cyclopropyl-2,3,4,5,6-pentafluoro-N-((3-(trifluoromethyl)pyridin-2-yl)methyl)benzenesulfonamide]: the pIC50 in data set [1] was 5.78; in [2], 5.39; in data set [4], 5.08. For the same molecule, the “effect on cell proliferation in BT428” value in data set [12] was “show potency”.
Take `O=S(=O)(c1c(F)c(F)c(F)c(F)c1F)N(Cc1ccc(F)cc1)C1CCC1` [Compound I-55, N-cyclobutyl-2,3,4,5,6-pentafluoro-N-(4-fluorobenzyl)benzenesulfonamide]: the negative logarithm of the IC50 (pIC50) in [1] is 6.37; in [2] it was 6.14; in [5], 5.60. For the same molecule, the “reduction of UBA5 levels and UFC1-UFM1 conjugate levels” value in data set [13] is listed as “comparable activity to I-1”.
Turning to `O=S(=O)(c1ccc(F)cc1)N(Cc1ccc(F)cc1)C1CC1` [Comparative Example 3, N-cyclopropyl-4-fluoro-N-(4-fluorobenzyl)benzenesulfonamide, reference compound], in [1] (AML cells (MV4-11 and MOLM13)), the “activity in AML cells” value is “inactive”. The pIC50 in data set [1], in data set [2], in data set [4] and in [3] was under 4.60 in each case.
